Molecules are shown by their SMILES.

In one assay the target is PDE4. The experiment in a line: Inhibition of PDE4, radioenzymatic phosphodiesterase assay. It is filed as biochemical, bovine. Conditions: Table 1, formula (III); 1 μM cyclic AMP. The procedure: A 3 g segment of bovine aortic media cut into pieces with scissors was homogenized with an ultra-turrax then a potter glass/glass homogenizer in 7 volumes by weight of buffer A containing a protease inhibitor cocktail (20 mM Tris-HCl, 0.25 M saccharose, 2 mM magnesium acetate, 1 mM dithiothreitol, 5 mM EGTA, 2000 U/ml aprotinin, 10 mg/l leupeptin and 10 mg/l soya trypsic inhibitor). The homogenizate was centrifuged at 105,000 g for 1 hour. […] The column was washed until there was no detectable absorption at 280 nm, then eluted with a linear gradient of NaCl (0–0.5 M) in buffer B. 3-ml fractions were collected and enzyme activity was determined under the conditions described hereinafter to localize the different enzymes PDE1, PDE3, PDE4 and PDE5, which were aliquoted and frozen at −80° C.
The nucleoside formed was separated from the nucleotides by anion exchange chromatography. Nucleoside radioactivity was determined by liquid scintillation counting.
For orientation: IC50 means the concentration needed to halve the response being measured. Lower therefore signals greater potency in that assay. For the molecule `COc1ccc(-c2ccc(C3=NN(C)C(=O)Cc4cc(OC)c(OC)cc43)cc2)cc1` [IIIao, 7,8-dimethoxy-1-[4-(4-methoxyphenyl)phenyl]-3-methyl-3,5-dihydro-4H-2,3-benzodiazepin-4-one], it took 1.7 µM to reach half-maximal inhibition (IC50).

As to `COc1cc2c(cc1OC)C(c1ccc(Br)cc1)=NN(C)C(=O)C2` [IIIan, 1-(4-bromophenyl)-7,8-dimethoxy-3-methyl-3,5-dihydro-4H-2,3-benzodiazepin-4-one], it took 1.8 µM to reach half-maximal inhibition (IC50). As to `COc1cccc(-c2ccc(C3=NN(C)C(=O)Cc4cc(OC)c(OC)cc43)cc2)c1` [IIIaj, 7,8-dimethoxy-1-[4-(3-methoxyphenyl)phenyl]-3-methyl-3,5-dihydro-4H-2,3-benzodiazepin-4-one], the IC50 was found to be 2.7 µM. As to `COc1cc2c(cc1OC)C(c1ccc(-c3cccc(C(C)=O)c3)cc1)=NN(C)C(=O)C2` [IIIak, 1-[4-(3-acetylphenyl)phenyl]-7,8-dimethoxy-3-methyl-3,5-dihydro-4H-2,3-benzodiazepin-4-one], the IC50 amounted to 1.8 µM. On the same count and under the same terms, the result for `CCOc1cc2c(cc1OCC)C(c1cc3ccccc3s1)=NN(C)C(=O)C2` [IIIba, 1-(2-benzo[b]thienyl)-7,8-diethoxy-3-methyl-3,5-dihydro-4H-2,3-benzodiazepin-4-one] reads 6.9 µM. `COc1cc2c(cc1OC)C(c1ccc(-c3ccc(Cl)cc3)cc1)=NN(C)C(=O)C2` [IIIat, 1-[4-(4-chlorophenyl)phenyl]-7,8-dimethoxy-3-methyl-3,5-dihydro-4H-2,3-benzodiazepin-4-one] gave an IC50 of 2.3 µM. `CCCCCC#Cc1ccc(C2=NN(C)C(=O)Cc3cc(OC)c(OC)cc32)cc1` [IIIax, 1-[4-(heptyn-1-yl)phenyl]-7,8-dimethoxy-3-methyl-3,5-dihydro-4H-2,3-benzodiazepin-4-one] gave a 50% inhibitory concentration (IC50) of 7.8 µM. Compared with the last molecule, the IC50 is about 3.4-fold higher.

Staying with this assay, now noted: Table 1, formula (III); compound at 10 μM.
`CCN1N=C(c2ccccc2)c2cc(OC)c(OC)cc2CC1=O` [IIIag, 3-ethyl-7,8-dimethoxy-1-phenyl-3,5-dihydro-4H-2,3-benzodiazepin-4-one]: the “PDE4 percentage inhibition at 10 μM” value came out at 36%.

Still in this assay, the particulars now being: Table 2, formula (XXII); 1 μM cyclic AMP.
With `CCOc1cc2c(cc1OC)C(c1ccccc1)=NC(c1ccccc1)C(=O)N2` (centres unmarked) [XXIIba, 3,5-diphenyl-8-ethoxy-7-methoxy-1,3-dihydro-2H-1,4-benzodiazepin-2-one], half-maximal inhibition (IC50) was put at 6.7 µM. Same read-out and setting: the result for `COc1cc2c(cc1OC)C(c1cccc(Br)c1)=NCC(=O)N2` [XXIIak, 5-(3-bromophenyl)-7,8-dimethoxy-1,3-dihydro-2H-1,4-benzodiazepin-2-one] reads 13 µM; that for `CCOc1cc2c(cc1OCC)C(c1ccccc1)=NC(Cc1ccccc1)C(=O)N2` (centres unmarked) [XXIIaj, 3-benzyl-7,8-diethoxy-5-phenyl-1,3-dihydro-2H-1,4-benzodiazepin-2-one], 4.4 µM.

Still in this assay, the particulars now being: Table 2, formula (XXII); compound at 10 μM.
On to `COc1cc2c(cc1OC)C(c1ccccc1)=NC(CCSC)C(=O)N2` (centres unmarked) [XXIIat, 7,8-dimethoxy-3-(2-methylthioethyl)-5-phenyl-1,3-dihydro-2H-1,4-benzodiazepin-2-one], for which the “PDE4 percentage inhibition at 10 μM” value is given as 29%. Take `CCOc1cc2c(cc1OC)NC(=O)CN=C2c1ccccc1` [XXIIbc, 5-phenyl-7-ethoxy-8-methoxy-1,3-dihydro-2H-1,4-benzodiazepin-2-one]: the “PDE4 percentage inhibition at 10 μM” value is on record as 10%. In the case of `COc1ccc2c(c1)C(c1cccc(C(F)(F)F)c1)=NCC(=O)N2` [XXIIae, 7-methoxy-5-[3-(trifluoromethyl)phenyl]-1,3-dihydro-2H-1,4-benzodiazepin-2-one], the “PDE4 percentage inhibition at 10 μM” value was found to be 21%.

The same assay, now with this note: Table 3, formula (II); 1 μM cyclic AMP.
Consider `COc1cc2c(cc1OC)N(C)C(=O)CN=C2c1cc2ccccc2[nH]1` [IIaq, 5-(2-indolyl)-7,8-dimethoxy-1-methyl-1,3-dihydro-1,4-benzodiazepin-2-one], for which 7.9 µM corresponded to half-maximal inhibition (IC50). Still for that read-out and setting: under `COc1cc2c(cc1OC)N(C)C(=O)CN=C2c1cc2ccccc2s1` [IIac, 5-(2-benzo[b]thienyl)-7,8-dimethoxy-1-methyl-1,3-dihydro-1,4-benzodiazepin-2-one] stands 2.3 µM; under `CCOc1cc2c(cc1OC)C(c1ccccc1)=NC(Cc1ccccc1)C(=O)N2CC` (centres unmarked) [IIbb, 3-benzyl-8-ethoxy-1-ethyl-7-methoxy-5-phenyl-1,3-dihydro-2H-1,4-benzodiazepin-2-one], 3.13 µM; under `CCN1C(=O)C(Cc2ccccc2)N=C(c2ccccc2)c2cc(OC)c(OC)cc21` (centres unmarked) [IIcq, 3-benzyl-1-ethyl-7,8-dimethoxy-5-phenyl-1,3-dihydro-2H-1,4-benzodiazepin-2-one], 7.4 µM. In turn, `CCN1C(=O)C(Cc2cccc(OC)c2)N=C(c2ccccc2)c2cc(OC)c(OC)cc21` (centres unmarked) [IIdc, 1-ethyl-7,8-dimethoxy-3-(3-methoxybenzyl)-5-phenyl-1,3-dihydro-2H-1,4-benzodiazepin-2-one] gave a half-maximal inhibitory concentration (IC50) of 5.1 µM. In the case of `COc1cc2c(cc1OC)N(C)C(=O)CN=C2c1cc2ccccc2o1` [IIag, 5-(2-benzo[b]furyl)-7,8-dimethoxy-1-methyl-1,3-dihydro-1,4-benzodiazepin-2-one], the IC50 is 4.8 µM. Consider `COc1cc2c(cc1OC)N(C)C(=O)CN=C2c1cccs1` [IIak, 7,8-dimethoxy-1-methyl-5-(2-thienyl)-1,3-dihydro-1,4-benzodiazepin-2-one], for which the IC50 was determined as 16 µM. Take `CCN1C(=O)C(Cc2cccc(-c3ccccc3)c2)N=C(c2ccccc2)c2cc(OC)c(OC)cc21` (centres unmarked) [IIcu, 3-(1,1′-biphenyl-3-ylmethyl)-1-ethyl-7,8-dimethoxy-5-phenyl-1,3-dihydro-2H-1,4-benzodiazepin-2-one]: the IC50 was determined as 4.8 µM. This IC50 lies about 3.3-fold lower than the previous one.

Still in this assay, the particulars now being: Table 3, formula (II); compound at 10 μM.
As for `COc1ccc2c(c1)N(C)C(=O)CN=C2c1ccccc1` [IIdm, 8-methoxy-1-methyl-5-phenyl-1,3-dihydro-2H-1,4-benzodiazepin-2-one], the “PDE4 percentage inhibition at 10 μM” value came to 16%. On the same count and under the same terms, the result for `COc1cc2c(cc1OC)N(Cc1ccccc1)C(=O)CN=C2c1ccccc1` [IIbc, 1-benzyl-7,8-dimethoxy-5-phenyl-1,3-dihydro-2H-1,4-benzodiazepin-2-one] reads 27.2%; that for `COc1cc2c(cc1OC)N(C)C(=O)[C@H](Cc1ccccc1)N=C2c1ccccc1` [IIdj, (S)-3-benzyl-7,8-dimethoxy-1-methyl-5-phenyl-1,3-dihydro-2H-1,4-benzodiazepin-2-one], 48.3%; that for `COc1cc2c(cc1OC)N(C)C(=O)CN=C2N1CCc2ccccc2C1` [IIav, 7,8-dimethoxy-1-methyl-5-(N-tetrahydro-1,2,3,4-isoquinolyl)-1,3-dihydro-2H-1,4-benzodiazepin-2-one], 15%. Consider `COc1ccc2c(c1)C(c1ccccc1)=NCC(=O)N2C` [IIdl, 7-methoxy-1-methyl-5-phenyl-1,3-dihydro-2H-1,4-benzodiazepin-2-one], for which the “PDE4 percentage inhibition at 10 μM” value was 34.6%. Still for that read-out and setting: under `CCN1C(=O)C(C2(O)CCN(Cc3ccccc3)CC2)N=C(c2ccccc2)c2cc(OC)c(OC)cc21` (centres unmarked) [IIcl, 3-(1-benzyl-4-hydroxypiperidin-4-yl)-1-ethyl-7,8-dimethoxy-5-phenyl-1,3-dihydro-2H-1,4-benzodiazepin-2-one] stands 4.3%. Same read-out and setting: the result for `COc1cc2c(cc1OC)N(C)C(=O)CN=C2c1cc(C(F)(F)F)cc(C(F)(F)F)c1` [IIaf, 7,8-dimethoxy-1-methyl-5-(3, 5 bistrifluoromethylphenyl)-1,3-dihydro-2H-1,4-benzodiazepin-2-one] reads 11.7%.

Source of the values: patent publication US7250410B2, “Cyclic nucleotide phosphodiesterase inhibitors, preparation and uses thereof” (Via Pharmaceuticals, Inc., priority 2001, dated 2007).
